Reference: ChEMBL document CHEMBL1201862, “PubChem BioAssay data set” (2004)
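Growth conditions: 96-well plates. Treatment: test compound, 48 hours, 5 concentrations. Analysis: linear interpolation between bracketing concentrations; unreached endpoints set to highest concentration. Here, GI50 denotes the concentration required for 50% inhibition of growth.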 Calls of active or inactive are those of the source. No stated cut-off is given here; in the data, active = GI50 up to about 1.1 µM and inactive = higher.

Columns and labels:
Assay in all cases: NCI tumour cell line growth inhibition, 48 h
[1] = system: MDA-MB-435
[2] = system: NCI-H23
[3] = system: NCI-H460
[4] = system: CCRF-CEM
[5] = system: A549
[6] = system: SK-MEL-28
[7] = system: MDA-N
[8] = system: CAKI-1
[9] = system: K562
[10] = system: UACC-257
[11] = system: PC-3
[12] = system: SF-295
[13] = system: KM12
[14] = system: SF-268
[15] = system: SR
[16] = system: TK-10
[17] = system: HT-29
[18] = system: HOP-62
[19] = system: SNB-75
[20] = system: COLO 205

Structure (SMILES) | GI50 [1] | GI50 [2] | GI50 [3] | GI50 [4] | GI50 [5] | GI50 [6] | GI50 [7] | GI50 [8] | GI50 [9] | GI50 [10] | GI50 [11] | GI50 [12] | GI50 [13] | GI50 [14] | GI50 [15] | GI50 [16] | GI50 [17] | GI50 [18] | GI50 [19] | GI50 [20]
Cc1ccc(S(=O)(=O)NC(=O)Nc2c(S(N)(=O)=O)cc(S(N)(=O)=O)c(Cl)c2Cl)cc1 | > 100 µM (inactive) | > 100 µM (inactive) | > 100 µM (inactive) | > 100 µM (inactive) | > 100 µM (inactive) | > 100 µM (inactive) | > 100 µM (inactive) | > 100 µM (inactive) | > 100 µM (inactive) | > 100 µM (inactive) | > 100 µM (inactive) | > 100 µM (inactive) | > 100 µM (inactive) | > 100 µM (inactive) | > 100 µM (inactive) | > 100 µM (inactive) | > 100 µM (inactive) |  |  | 
CC1=CC(=O)CC(C)(C)C1/C=C/C(C)=C/C=C/C(C)=C/C=C/C=C(C)/C=C/C=C(C)/C=C/C1=C(C)CC(O)CC1(C)C (centres undefined) | 25 µM (inactive) | 27.9 µM (inactive) | 38.3 µM (inactive) | 24.9 µM (inactive) |  | 28.4 µM (inactive) | 29.9 µM (inactive) | 39.3 µM (inactive) | 0.745 µM (active) | 37.7 µM (inactive) | 45.3 µM (inactive) | 60.8 µM (inactive) | 31.8 µM (inactive) | 50.9 µM (inactive) | 0.0422 µM (active) | 50.2 µM (inactive) | 30.8 µM (inactive) | 47 µM (inactive) |  | 
COC(=O)C(=O)C(C(=O)C(=O)Nc1nnc(S)[nH]1)c1nc2ccc([N+](=O)[O-])cc2nc1O (centres undefined) | > 100 µM (inactive) | > 100 µM (inactive) | > 100 µM (inactive) | > 100 µM (inactive) | > 100 µM (inactive) | > 100 µM (inactive) | > 100 µM (inactive) | > 100 µM (inactive) | 57.8 µM (inactive) | > 100 µM (inactive) | > 100 µM (inactive) | > 100 µM (inactive) | > 100 µM (inactive) | > 100 µM (inactive) |  | > 100 µM (inactive) | > 100 µM (inactive) | > 100 µM (inactive) | > 100 µM (inactive) | 
O=C1CCSCCC(=O)Nc2ccccc2N1 | > 100 µM (inactive) | > 100 µM (inactive) | > 100 µM (inactive) | > 100 µM (inactive) | > 100 µM (inactive) | > 100 µM (inactive) | > 100 µM (inactive) | > 100 µM (inactive) | > 100 µM (inactive) | > 100 µM (inactive) | > 100 µM (inactive) | > 100 µM (inactive) | > 100 µM (inactive) | > 100 µM (inactive) | > 100 µM (inactive) | > 100 µM (inactive) | > 100 µM (inactive) | > 100 µM (inactive) |  | > 100 µM (inactive)
CNNC1=NS(=O)(=O)c2cc(C#N)c(Cl)cc2S1 | > 10 µM (inactive) | > 10 µM (inactive) | > 10 µM (inactive) | > 10 µM (inactive) | > 10 µM (inactive) | > 10 µM (inactive) | > 10 µM (inactive) | > 10 µM (inactive) | > 10 µM (inactive) | > 10 µM (inactive) | > 10 µM (inactive) | > 10 µM (inactive) | > 10 µM (inactive) | > 10 µM (inactive) |  | > 10 µM (inactive) | > 10 µM (inactive) | > 10 µM (inactive) | > 10 µM (inactive) | > 10 µM (inactive)
O=C(Nn1c(-c2ccccc2)nc2ccccc2c1=O)c1ccc(Cl)cc1 | 91.2 µM (inactive) | 95.1 µM (inactive) | 59.6 µM (inactive) | > 100 µM (inactive) | 67.9 µM (inactive) | > 100 µM (inactive) | > 100 µM (inactive) |  | > 100 µM (inactive) | > 100 µM (inactive) | 66.4 µM (inactive) | > 100 µM (inactive) | > 100 µM (inactive) | > 100 µM (inactive) | 85.5 µM (inactive) | 86.3 µM (inactive) | > 100 µM (inactive) | > 100 µM (inactive) | 27.1 µM (inactive) | 
COc1cc(C2SCC(=O)N2Cc2ccccc2)cc(OC)c1OC (centres undefined) | > 100 µM (inactive) | > 100 µM (inactive) | > 100 µM (inactive) | > 100 µM (inactive) | > 100 µM (inactive) | > 100 µM (inactive) | > 100 µM (inactive) | > 100 µM (inactive) | > 100 µM (inactive) | > 100 µM (inactive) | > 100 µM (inactive) | > 100 µM (inactive) | > 100 µM (inactive) | > 100 µM (inactive) | > 100 µM (inactive) | > 100 µM (inactive) | > 100 µM (inactive) |  |  | > 100 µM (inactive)
CCOC(=O)CCC(NC(=O)c1ccc(OCc2nc3cc(C(F)(F)F)ccc3nc2-c2ccccc2)cc1)C(=O)OCC (centres undefined) | 84.1 µM (inactive) | 85.3 µM (inactive) | 52.1 µM (inactive) | 58.2 µM (inactive) | > 100 µM (inactive) | > 100 µM (inactive) | 55.5 µM (inactive) | 74.8 µM (inactive) | 46.6 µM (inactive) | 67.3 µM (inactive) | 42.7 µM (inactive) | 40.6 µM (inactive) | 29 µM (inactive) | 37.3 µM (inactive) | 16.4 µM (inactive) |  | > 100 µM (inactive) |  | 4.07 µM (inactive) | 17.9 µM (inactive)
CC(=O)NC1=C(NCCCl)C(=O)c2ccccc2C1=O | 16.6 µM (inactive) | 26.1 µM (inactive) | 32.1 µM (inactive) | 19.1 µM (inactive) | 35.4 µM (inactive) | 72.3 µM (inactive) | 21.4 µM (inactive) |  | 27.9 µM (inactive) | 15 µM (inactive) | 22.3 µM (inactive) | 37.4 µM (inactive) | 31.8 µM (inactive) | 59.8 µM (inactive) | 30.8 µM (inactive) |  | 26.4 µM (inactive) | 64 µM (inactive) | 24.3 µM (inactive) | 28.4 µM (inactive)
COC(=O)C(=O)C(C(=O)C(=O)Nc1ccccc1C(N)=O)c1nc2ccc(Cl)cc2nc1O (centres undefined) | > 100 µM (inactive) | > 100 µM (inactive) | > 100 µM (inactive) | > 100 µM (inactive) | > 100 µM (inactive) | > 100 µM (inactive) | > 100 µM (inactive) | 82.8 µM (inactive) | > 100 µM (inactive) | > 100 µM (inactive) | > 100 µM (inactive) | > 100 µM (inactive) | > 100 µM (inactive) | > 100 µM (inactive) | > 100 µM (inactive) |  | > 100 µM (inactive) |  | 33.7 µM (inactive) | > 100 µM (inactive)
CCCCCCCCCCCCCCCCP(=O)(O)OCC(N)C(=O)O (centres undefined) | 37.3 µM (inactive) | 90.4 µM (inactive) | 22.8 µM (inactive) | 33.5 µM (inactive) | 46.2 µM (inactive) | > 100 µM (inactive) | 33.2 µM (inactive) | 19.1 µM (inactive) | > 100 µM (inactive) | > 100 µM (inactive) | 14.9 µM (inactive) | 20.7 µM (inactive) | 20.3 µM (inactive) | 27.7 µM (inactive) | 13.7 µM (inactive) |  | 55.3 µM (inactive) | 23.4 µM (inactive) | 26.9 µM (inactive) | 46.1 µM (inactive)
OC1C#CCSCC#C/C=C\1 (centres undefined) | 56 µM (inactive) | 80.4 µM (inactive) | 13.7 µM (inactive) | 27 µM (inactive) |  | 89.5 µM (inactive) | 81.3 µM (inactive) |  | 17.9 µM (inactive) | 30.9 µM (inactive) | > 100 µM (inactive) | > 100 µM (inactive) |  | > 100 µM (inactive) | > 100 µM (inactive) | > 100 µM (inactive) | 65.9 µM (inactive) | > 100 µM (inactive) | > 100 µM (inactive) | 15.2 µM (inactive)
CCOC(=O)CCCn1cc(C(=O)OC)nn1 | > 100 µM (inactive) | > 100 µM (inactive) | > 100 µM (inactive) | > 100 µM (inactive) | > 100 µM (inactive) | > 100 µM (inactive) | > 100 µM (inactive) | > 100 µM (inactive) |  | > 100 µM (inactive) | > 100 µM (inactive) | 46.5 µM (inactive) | > 100 µM (inactive) | > 100 µM (inactive) |  | > 100 µM (inactive) | > 100 µM (inactive) | > 100 µM (inactive) | > 100 µM (inactive) | > 100 µM (inactive)
C(/c1ccco1)=c1/nc(-c2ccccc2)n2c1nc1ccccc12 | 14.4 µM (inactive) | 35.2 µM (inactive) | 39.2 µM (inactive) | 16.6 µM (inactive) | 50 µM (inactive) |  | 17.6 µM (inactive) | 5.51 µM (inactive) | 20.9 µM (inactive) | > 100 µM (inactive) | 1.04 µM (active) | 12.9 µM (inactive) | 11.2 µM (inactive) | 31.4 µM (inactive) | 11.4 µM (inactive) | 34.8 µM (inactive) | 26.6 µM (inactive) | 2.05 µM (inactive) |  | 98.9 µM (inactive)
CCCSc1ccc2[nH]c(N3C(=O)/C(=C/c4ccc(O)c(OC)c4)N=C3c3ccccc3)cc2c1 | 2.69 µM (inactive) | 16.7 µM (inactive) | 0.0422 µM (active) | 7.82 µM (inactive) |  | 17.2 µM (inactive) | 2.32 µM (inactive) | 14.7 µM (inactive) | 3.68 µM (inactive) | 4.56 µM (inactive) | 13.2 µM (inactive) |  | 0.0791 µM (active) | 9.16 µM (inactive) | 1.34 µM (inactive) |  | 3.02 µM (inactive) | 0.0424 µM (active) | 26.2 µM (inactive) | 4.27 µM (inactive)
